Test results as given in patent publication EP2607478A1, “Phenanthroline treated MSC” (Universiteit Twente, priority 2011, dated 2013).

System: MSCs
Test: Whole genome expression analysis (Illumina microarray) of treated MSCs
Assay type: cell-based, Human
Settings: DFO versus Bas
Protocol: MSCs were seeded in T25 flasks at 5000 cells/cm^2 and allowed to attach overnight in proliferation medium. […] After 48 hours, RNA was isolated as described above. From 500 ng of RNA, cRNA was synthesized using the Illumina TotalPrep RNA amplification Kit (Ambion), according to the manufacturer's protocol and the quality of RNA and cRNA was verified on a Bioanalyzer 2100 (Agilent). Microarrays were performed using Illumina HT-12 v4 expression Beadchips, according to the manufacturer's protocol. Briefly, 750 ng of cRNA was hybridized on the array overnight after which the array was washed and blocked. Then, by addition of streptavidin Cy-3 a fluorescent signal was developed. Arrays were scanned on an Illumina iScan reader and raw intensity values were background corrected in GenomeStudio (Illumina). Further data processing and statistical testing were performed with R and Bioconductor statistical software (www.bioconductor.org), using package lumi. Raw intensity values were transformed using variance stabilization and a quantile normalization was performed. A linear modelling approach with empirical Bayesian methods, as implemented in Limma package (54), was applied for differential expression analysis of the resulting probe-level expression values. A gene list, containing only those genes with an absolute 1.5-fold change between different treatments, was uploaded to Ingenuity Pathway Analysis (IPA) software and used for core analysis. Pathways or networks with a p-value of 0.05 were considered statistically significant.

Q: `CC(=O)N(O)CCCCCNC(=O)CCC(=O)N(O)CCCCCNC(=O)CCC(=O)N(O)CCCCCN` [DFO, reference compound] was tested. Which “logFC(D142_ DFO - D142_BAS)” value (ProbeID ILMN_1699644) did it give?
A: The value was 2,52.

Q: And the “logFC(D142_ DFO - D142_BAS) RRAGD” value (ProbeID ILMN_1699772)?
A: The value was 2,43.

Q: And the “logFC(D142_ DFO - D142_BAS) QPRT” value (ProbeID ILMN_1700268)?
A: Its value is -2,44.

Q: And the “logFC(D142_ DFO - D142_BAS) SULF1” value (ProbeID ILMN_1702363)?
A: Its value is -2,42.

Q: What about the “logFC(D142_ DFO - D142_BAS) TNFRSF19” value (ProbeID ILMN_1704154) of the same compound?
A: The value was -2,00.

Q: And the “logFC(D142_ DFO - D142_BAS) SLC6A10P” value (ProbeID ILMN_1704446)?
A: Its value is 2,82.

Q: And the “logFC(D142_ DFO - D142_BAS) PHGDH” value (ProbeID ILMN_1704537)?
A: The value was 2,18.

Q: And the “logFC(D142_ DFO - D142_BAS) ANGPTL4” value (ProbeID ILMN_1707727)?
A: Its value is 6,19.

Q: And the “logFC(D142_ DFO - D142_BAS) TP53INP1” value (ProbeID ILMN_1714108)?
A: Its value is 2,66.

Q: And the “logFC(D142_ DFO - D142_BAS) NNMT” value (ProbeID ILMN_1715508)?
A: Its value is -2,16.

Q: And the “logFC(D142_ DFO - D142_BAS) NGF” value (ProbeID ILMN_1716608)?
A: The value was 2,73.

Q: And the “logFC(D142_ DFO - D142_BAS) C5orf46” value (ProbeID ILMN_1718866)?
A: Its value is 2,59.

Q: And the “logFC(D142_ DFO - D142_BAS) BNIP3L” value (ProbeID ILMN_1718961)?
A: Its value is 2,24.

Q: And the “logFC(D142_ DFO - D142_BAS) SLC7A5” value (ProbeID ILMN_1720373)?
A: The value was 3,21.

Q: And the “logFC(D142_ DFO - D142_BAS) JMJD1A” value (ProbeID ILMN_1722532)?
A: Its value is 2,13.

Q: And the “logFC(D142_ DFO - D142_BAS) HK2” value (ProbeID ILMN_1723486)?
A: Its value is 2,21.

Q: What about the “logFC(D142_ DFO - D142_BAS) BNIP3” value (ProbeID ILMN_1724658) of the same compound?
A: The value was 3,37.

Q: And the “logFC(D142_ DFO - D142_BAS) CTHRC1” value (ProbeID ILMN_1725090)?
A: Its value is -2,13.

Q: And the “logFC(D142_ DFO - D142_BAS) CA9” value (ProbeID ILMN_1725139)?
A: Its value is 3,31.

Q: What about the “logFC(D142_ DFO - D142_BAS) SLC3A2” value (ProbeID ILMN_1726456) of the same compound?
A: The value was 2,31.

Q: And the “logFC(D142_ DFO - D142_BAS) OLFML3” value (ProbeID ILMN_1727532)?
A: Its value is -2,91.

Q: And the “logFC(D142_ DFO - D142_BAS) PRC1” value (ProbeID ILMN_1728934)?
A: The value was -2,66.

Q: What about the “logFC(D142_ DFO - D142_BAS) STEAP1” value (ProbeID ILMN_1733094) of the same compound?
A: The value was -2,15.

Q: What about the “logFC(D142_ DFO - D142_BAS) COL12A1” value (ProbeID ILMN_1733756) of the same compound?
A: Its value is -2,56.

Q: What about the “logFC(D142_ DFO - D142_BAS) PPP1R3C” value (ProbeID ILMN_1736670) of the same compound?
A: The value was 2,33.

Q: What about the “logFC(D142_ DFO - D142_BAS) TMEM119” value (ProbeID ILMN_1738116) of the same compound?
A: The value was -3,83.

Q: And the “logFC(D142_ DFO - D142_BAS) ULBP1” value (ProbeID ILMN_1738407)?
A: The value was 2,07.

Q: What about the “logFC(D142_ DFO - D142_BAS) PLAT” value (ProbeID ILMN_1738742) of the same compound?
A: The value was 2,03.

Q: What about the “logFC(D142_ DFO - D142_BAS) TUBA1A” value (ProbeID ILMN_1742981) of the same compound?
A: Its value is -2,06.

Q: What about the “logFC(D142_ DFO - D142_BAS) EGR2” value (ProbeID ILMN_1743199) of the same compound?
A: The value was 2,34.

Q: And the “logFC(D142_ DFO - D142_BAS) C1QTNF5” value (ProbeID ILMN_1744487)?
A: Its value is -2,69.

Q: What about the “logFC(D142_ DFO - D142_BAS) ERO1L” value (ProbeID ILMN_1744963) of the same compound?
A: The value was 3,58.

Q: What about the “logFC(D142_ DFO - D142_BAS) CEP55” value (ProbeID ILMN_1747016) of the same compound?
A: The value was -2,32.

Q: And the “logFC(D142_ DFO - D142_BAS) EGLN1” value (ProbeID ILMN_1749892)?
A: The value was 2,28.

Q: And the “logFC(D142_ DFO - D142_BAS) IGFBP5” value (ProbeID ILMN_1750324)?
A: The value was 2,71.

Q: And the “logFC(D142_ DFO - D142_BAS) SESN2” value (ProbeID ILMN_1751598)?
A: The value was 2,18.

Q: And the “logFC(D142_ DFO - D142_BAS) PGK1” value (ProbeID ILMN_1755749)?
A: The value was 2,16.

Q: What about the “logFC(D142_ DFO - D142_BAS) ALDOC” value (ProbeID ILMN_1755974) of the same compound?
A: The value was 2,33.

Q: And the “logFC(D142_ DFO - D142_BAS) ANKRD37” value (ProbeID ILMN_1756417)?
A: Its value is 3,40.

Q: What about the “logFC(D142_ DFO - D142_BAS) COQ2” value (ProbeID ILMN_1756572) of the same compound?
A: The value was -2,03.

Q: And the “logFC(D142_ DFO - D142_BAS) NDUFA4L2” value (ProbeID ILMN_1756573)?
A: Its value is 5,66.

Q: And the “logFC(D142_ DFO - D142_BAS) STC1” value (ProbeID ILMN_1758164)?
A: The value was 3,77.

Q: What about the “logFC(D142_ DFO - D142_BAS) HIST1H2BD” value (ProbeID ILMN_1758623) of the same compound?
A: The value was 2,40.

Q: And the “logFC(D142_ DFO - D142_BAS) FAM107B” value (ProbeID ILMN_1758672)?
A: Its value is 2,18.

Q: And the “logFC(D142_ DFO - D142_BAS) LOC441019” value (ProbeID ILMN_1761281)?
A: The value was 2,16.

Q: What about the “logFC(D142_ DFO - D142_BAS) AK3L1” value (ProbeID ILMN_1764090) of the same compound?
A: The value was 2,74.

Q: What about the “logFC(D142_ DFO - D142_BAS) OLFML2B” value (ProbeID ILMN_1765557) of the same compound?
A: Its value is -3,16.

Q: And the “logFC(D142_ DFO - D142_BAS) LOC399942” value (ProbeID ILMN_1765701)?
A: The value was -2,67.

Q: What about the “logFC(D142_ DFO - D142_BAS) ENO2” value (ProbeID ILMN_1765796) of the same compound?
A: Its value is 4,08.
